Laboratory results: DBAASP
In brackets after ≈: the same amount, converted by molar mass. Several values for one entry are separate records, joined by “and”; a condition that tells them apart may be missing. Equal entries are not always repeated.

Key:
Assay in all cases: ≥ marks a high value that may be exact or a test limit, other limits are often not marked, values filed in µg/mL are converted to µM
[1] = tested on: Saccharomyces cerevisiae ATCC 44774
[2] = tested on: Bacillus subtilis ATCC 62037
[3] = tested on: Candida albicans ATCC 10231
[4] = tested on: Escherichia coli ATCC 27325
[5] = tested on: Cryptococcus neoformans ATCC 34881
[6] = tested on: Pseudomonas putida ATCC 17426
[7] = tested on: Streptococcus mutans ATCC 25175
[8] = tested on: Staphylococcus aureus ATCC 15752
[9] = tested on: Salmonella enterica subsp. enterica serovar Enteritidis ATCC 13076
[10] = tested on: Micrococcus luteus DSM 20030
[11] = tested on: Staphylococcus aureus NCTC 10788
[12] = tested on: Escherichia coli NCTC 10418
[13] = tested on: Staphylococcus aureus NCTC 12493
[14] = tested on: Klebsiella pneumoniae ATCC 43816
[15] = tested on: Candida albicans NCYC 1467
[16] = tested on: Pseudomonas aeruginosa ATCC 27853
[17] = tested on: Enterococcus faecalis NCTC 12697
[18] = tested on: Pseudomonas aeruginosa ATCC 15442
[19] = tested on: Escherichia coli CCT 1457
[20] = tested on: Bacillus cereus ATCC 11778
[21] = tested on: Staphylococcus aureus CCT 2580
[22] = tested on: Acinetobacter baumannii NM75
[23] = tested on: Acinetobacter baumannii NM35
Escherichia coli K-12 = tested on: Escherichia coli K-12
[24] = tested on: Staphylococcus aureus ATCC 25923
[25] = tested on: Acinetobacter baumannii NM8
Acinetobacter baumannii = tested on: Acinetobacter baumannii
[26] = tested on: Escherichia coli ATCC 25726
[27] = tested on: Staphylococcus aureus USA 300
[28] = tested on: Acinetobacter baumannii NM109
[29] = tested on: Candida albicans ATCC 90028
Escherichia coli D31 = tested on: Escherichia coli D31
[30] = tested on: Acinetobacter baumannii NM124

CC[C@H](C)[C@H](NC(=O)[C@@H]1CCCN1C(=O)[C@H](Cc1c[nH]c2ccccc12)NC(=O)[C@H](CCC(N)=O)NC(=O)[C@H](CC(C)C)NC(=O)CNC(=O)[C@H](C)NC(=O)[C@@H](N)CCCN=C(N)N)C(=O)NCC(=O)N[C@@H](CCCN=C(N)N)C(=O)N[C@@H](CC(C)C)C(=O)N[C@@H](CC(C)C)C(=O)N[C@@H](CCCN=C(N)N)C(=O)N[C@@H](CCCN=C(N)N)C(=O)N[C@@H](CC(C)C)C(=O)N[C@@H](CC(C)C)C(=O)N[C@@H](CCCN=C(N)N)C(=O)N[C@@H](CCCN=C(N)N)C(=O)N[C@@H](CC(C)C)C(=O)N[C@@H](CC(C)C)C(=O)N[C@@H](CCCN=C(N)N)C(=O)O [RAGLQWPIGRLLRRLLRRLLR]
MIC [1]: 0.765 µM (≈ 2 µg/mL) | MIC [2]: 0.765 µM (≈ 2 µg/mL) | MIC [3]: 0.765 µM (≈ 2 µg/mL) | MIC [4]: 0.383 µM (≈ 1 µg/mL) | MIC [5]: 0.383 µM (≈ 1 µg/mL) | MIC [6]: 0.765 µM (≈ 2 µg/mL) | MIC [7]: 0.765 µM (≈ 2 µg/mL) | MIC [8]: 0.383 µM (≈ 1 µg/mL) | MIC [9]: 0.765 µM (≈ 2 µg/mL)

CC[C@H](C)[C@H](N)C(=O)N[C@@H](CO)C(=O)N[C@@H](CCC(N)=O)C(=O)N[C@@H](CO)C(=O)N[C@@H](CC(=O)O)C(=O)N[C@@H](C)C(=O)N[C@H](C(=O)N[C@@H](CC(C)C)C(=O)N[C@@H](CO)C(=O)N[C@@H](C)C(=O)N[C@H](C(=O)N[C@@H](Cc1c[nH]c2ccccc12)C(=O)N[C@@H](CO)C(=O)NCC(=O)N[C@H](C(=O)N[C@@H](CCCCN)C(=O)N[C@@H](CO)C(=O)N[C@@H](CC(C)C)C(=O)N[C@@H](Cc1ccccc1)C(N)=O)[C@@H](C)CC)[C@@H](C)CC)[C@@H](C)CC [ISQSDAILSAIWSGIKSLF]
MIC [10]: 4 µM (≈ 8.14 µg/mL)

CC[C@H](C)[C@H](NC(=O)[C@H](C)NC(=O)[C@H](CO)NC(=O)[C@@H](NC(=O)[C@H](C)NC(=O)[C@H](CCCCN)NC(=O)[C@@H]1CCCN1C(=O)[C@@H](NC(=O)[C@H](CC(C)C)NC(=O)[C@H](CO)NC(=O)[C@H](CC(C)C)NC(=O)[C@@H](N)Cc1ccccc1)[C@@H](C)CC)[C@@H](C)CC)C(=O)N[C@@H](CO)C(=O)N[C@@H](C)C(=O)N[C@@H](CC(C)C)C(=O)N[C@@H](C)C(=O)N[C@@H](CC(N)=O)C(=O)N[C@@H](Cc1cnc[nH]1)C(=O)N[C@@H](Cc1ccccc1)C(N)=O [FLSLIPKAISAISALANHF]
MIC [11]: 4 µM (≈ 8.05 µg/mL) | MIC [12]: ≥ 64 µM | MIC [13]: 16 µM (≈ 32.2 µg/mL) | MIC [14]: ≥ 256 µM | MIC [15]: 8 µM (≈ 16.1 µg/mL) | MIC [16]: > 512 µM | MIC [17]: ≥ 64 µM

CC[C@H](C)[C@H](N)C(=O)N[C@@H](CC(=O)O)C(=O)N[C@@H](Cc1c[nH]c2ccccc12)C(=O)N[C@@H](CC(C)C)C(=O)N[C@@H](CCCCN)C(=O)N[C@@H](CC(C)C)C(=O)NCC(=O)N[C@@H](CCCCN)C(=O)N[C@@H](CCSC)C(=O)N[C@H](C(=O)N[C@@H](CCSC)C(=O)N[C@@H](CC(=O)O)C(=O)N[C@H](C(=O)N[C@@H](CC(C)C)C(N)=O)C(C)C)C(C)C [IDWLKLGKMVMDVL]
MIC [18]: ≥ 301 µM | MIC [19]: ≥ 37.3 µM | MIC [20]: ≥ 37.3 µM | MIC [21]: 18.7 µM (≈ 31 µg/mL)

CC[C@H](C)[C@H](NC(=O)CNC(=O)[C@H](CCCCN)NC(=O)[C@H](CCCCN)NC(=O)[C@H](CCC(N)=O)NC(=O)[C@H](CC(C)C)NC(=O)[C@H](CCSC)NC(=O)[C@@H](NC(=O)[C@H](CCC(=O)O)NC(=O)CNC(=O)[C@@H](NC(=O)[C@H](Cc1ccccc1)NC(=O)[C@H](C)NC(=O)[C@H](CCCCN)NC(=O)CNC(=O)[C@H](Cc1ccccc1)NC(=O)[C@H](CCCCN)NC(=O)[C@H](CCCCN)NC(=O)[C@H](C)NC(=O)[C@H](CO)NC(=O)[C@H](Cc1cnc[nH]1)NC(=O)[C@H](CCSC)NC(=O)[C@H](C)NC(=O)[C@H](CCCCN)NC(=O)[C@@H]1CCCN1C(=O)[C@H](C)N)C(C)C)[C@@H](C)CC)C(=O)O [APKAMHSAKKFGKAFVGEIMLQKKGI]
MIC [1]: 11.4 µM (≈ 32 µg/mL) | MIC [2]: 22.7 µM (≈ 64 µg/mL) | MIC [3]: 11.4 µM (≈ 32 µg/mL) | MIC [4]: 22.7 µM (≈ 64 µg/mL) | MIC [5]: 5.68 µM (≈ 16 µg/mL) | MIC [6]: 22.7 µM (≈ 64 µg/mL) | MIC [7]: ≥ 45.4 µM | MIC [8]: 22.7 µM (≈ 64 µg/mL) | MIC [9]: 11.4 µM (≈ 32 µg/mL)

CC[C@H](C)[C@H](NC(=O)CN)C(=O)N[C@@H](Cc1c[nH]c2ccccc12)C(=O)N[C@@H](CC(=O)O)C(=O)N[C@H](C(=O)N[C@H](C(=O)N[C@@H](CCCCN)C(=O)N[C@@H](CO)C(=O)N[C@@H](CCSC)C(=O)NCC(=O)N[C@@H](CCCCN)C(=O)N[C@H](C(=O)N[C@@H](Cc1ccccc1)C(=O)N[C@@H](C)C(=O)NCC(=O)N[C@@H](CCCCN)C(=O)N[C@H](C(=O)N[C@@H](CC(C)C)C(=O)N[C@@H](CCC(N)=O)C(=O)N[C@@H](CC(N)=O)C(=O)N[C@@H](CC(C)C)C(N)=O)[C@@H](C)CC)C(C)C)[C@@H](C)CC)[C@@H](C)O [GIWDTIKSMGKVFAGKILQNL]
MIC [22]: 3 µM (≈ 6.96 µg/mL) | MIC [23]: 6 µM (≈ 13.9 µg/mL) | MIC (Escherichia coli K-12): 25 µM (≈ 58 µg/mL) | MIC [24]: 25 µM and 22.6 µM | MIC [25]: 6 µM (≈ 13.9 µg/mL) | MIC [18]: ≥ 100 µM | MIC (Acinetobacter baumannii): 12.5 µM (≈ 29 µg/mL) | MIC [26]: 25 µM (≈ 58 µg/mL) | MIC [3]: 16 µM (≈ 37.1 µg/mL) | MIC [27]: 25 µM (≈ 58 µg/mL) | MIC [28]: 6 µM (≈ 13.9 µg/mL) | MIC [29]: 12.5 µM (≈ 29 µg/mL) | MIC (Escherichia coli D31): ≥ 32 µM | MIC [30]: 6 µM (≈ 13.9 µg/mL) | MIC [7]: ≥ 100 µM
